{"source": "paper PMC6060874", "about": "“Alanine scan of sialorphin and its hybrids with opiorphin: synthesis, molecular modelling and effect on enkephalins degradation” (Amino Acids, 2018)", "key": {"[1]": {"tested_on": "NEP enzyme extracted from porcine kidney", "experiment": "Degradation of Met-enkephalin incubated with NEP alone (without inhibitor)", "format": "in vitro ADME", "conditions": "printed value is 1000 × k, Met-enkephalin 0.0413 mM, NEP 5.687 nM, Tris–HCl 50 mM pH 7.4, 37 °C, 0–120 min, RP-HPLC, mean ± SEM, triplicate", "experimental": "(§1) The degradation studies were performed using the NEP enzyme extracted from porcine kidney, acquired from Merck (Warsaw, Poland). Solutions of Met-enkephalin, NEP and inhibitors were prepared by dissolving them in a Tris–HCl buffer (50 mM, pH 7.4). In investigated samples, the concentrations of Met-enkephalin, inhibitors and NEP were, respectively, 0.0413 mM, 0.156 mM and 5.687 nM. The reaction was initiated by addition of enzyme to a solution-containing Met-enkephalin and inhibitor. The samples consisting of the enzyme, Met-enkephalin and inhibitors were incubated over 0, 30, 60, 90, 120 min at 37 °C in a final volume of 300 μL. The reaction was stopped at a predetermined time by placing the tube on ice and acidifying with 30 μL of a 1 M aqueous HCl solution. The aliquots were centrifuged at 14,500 rpm for 20 min. The supernatants were filtered through Millipore Millex-GV syringe filters with 0.22 μm pores (Merck, Warsaw, Poland) and analysed by RP-HPLC on a Phenomenex Gemini-NX C18 column (5 μm, 4.6 mm × 150 mm) using a linear gradient of 3–50% of [B] for 8 min at a flow rate of 2.5 ml/min. Two solvent systems were used: 0.1% TFA in water [A] and 0.1% TFA in acetonitrile [B]. The rate constants of degradation (k) and degradation half-lives (t1/2) were calculated as described elsewhere (Kamysz et al. [2016]; Perlikowska et al. [2012]). All measurements were performed in triplicate. […]"}, "NEP": {"tested_on": "NEP", "experiment": "Degradation of Met-enkephalin incubated with NEP alone (without inhibitor)", "format": "in vitro ADME, porcine", "conditions": "pig, NEP enzyme extracted from porcine kidney, Met-enkephalin 0.0413 mM, NEP 5.687 nM, Tris–HCl 50 mM pH 7.4, 37 °C, 0–120 min, RP-HPLC, mean ± SEM, triplicate, read-out: t1/2, half-life of Met-enkephalin incubated with NEP alone", "experimental": "as §1"}}, "data": [{"smiles": "CSCC[C@H](NC(=O)[C@H](Cc1ccccc1)NC(=O)CNC(=O)CNC(=O)[C@@H](N)Cc1ccc(O)cc1)C(=O)O", "note": "[Met-enkephalin, Met-enkephalin (Tyr–Gly–Gly–Phe–Met)]", "values": [{"measurement": "1000 × k, degradation rate of Met-enkephalin incubated with NEP alone", "setting": "[1]", "value": "25.3 ± 1.0", "unit": "min⁻¹"}, {"measurement": "half-life", "setting": "NEP", "value": "27 ± 1", "unit": "min"}]}]}
